“And” between values parts separate entries of the source, which are not always exact repeats. Equal values may be shown once. “Also recorded” adds a separate entry of the source. Read-outs that look alike come from different tables or passages of the source. Each block holds one molecule with its values, some of them ahead of it.
Legend:
MBP = test: DSF thermal shift control with MBP; format: binding; conditions: 0.5 mM PAPS, 10 μM heparin or 5 mM maltose; result in words
HS2ST [1] = biological target: T1, HS2ST (Gallus gallus, UniProt Q76KB1); test: DSF thermal shift/stability assay of MBP-HS2ST; format: binding, Chicken; conditions: 5 μM MBP-HS2ST; for thermal stabilisation of HS2ST (DSF): result in words
T1 construct: made in house; host or cells: Escherichia coli Rosetta-gami (DE3), modified pMAL-c2x plasmid
T1 sequence (Q76KB1 69-356): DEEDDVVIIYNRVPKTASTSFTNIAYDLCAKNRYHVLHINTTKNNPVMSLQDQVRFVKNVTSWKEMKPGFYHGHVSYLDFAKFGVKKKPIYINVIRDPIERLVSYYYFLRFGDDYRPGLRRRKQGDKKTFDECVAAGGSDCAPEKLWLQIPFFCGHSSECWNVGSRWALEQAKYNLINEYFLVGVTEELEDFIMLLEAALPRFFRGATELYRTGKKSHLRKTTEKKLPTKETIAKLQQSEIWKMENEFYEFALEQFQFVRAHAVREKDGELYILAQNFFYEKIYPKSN

HS2ST [2] = biological target: T1, HS2ST; test: Microfluidic mobility shift sulfation assay with fluorescent hexasaccharide substrate; format: biochemical, Chicken; conditions: for mode of HS2ST inhibition: increasing concentration of PAPS, 10 μM PAP, 0.5 mM CoA or 20 μM rottlerin; for HS2ST inhibition (dose-response): 1 μM PAPS, 15 min at 20°C (Figure 4C); for HS2ST inhibition: concentrations as high as 400 μM (Supplementary Figure S9B)
Description: (§1) N-sulfated, fluorescein-tagged hexasaccharide glycan substrate (GlcNS–GlcA–GlcNS–IdoA–GlcNS–GlcA-fluorescein, where S = sulfation) containing either L-IdoA or D-GlcA residues at the third residue from the reducing end (to which a linker and the fluorophore were conjugated) was both purchased from GLYCAN therapeutics (www.glycantherapeutics.com). […] Chemically modified heparins were generated through a published procedure, whereas oligosaccharides from Iduron were generated enzymatically. Non-radioactive microfluidic mobility shift carbohydrate sulfation assays were optimised in solution with a 12-sipper chip coated with CR8 reagent and a PerkinElmer EZ Reader II system using EDTA-based separation buffer and real-time kinetic evaluation of substrate sulfation. Pressure and voltage settings were adjusted manually to afford optimal separation of the sulfated product and non-sulfated hexasaccharide substrate, with a sample (sip) volume of 20 nl, and total assay times appropriate for the experiment. […] The degree of oligosaccharide sulfation was directly calculated using the EZ Reader software by measuring the sulfo oligosaccharide : oligosaccharide ratio at each time-point. The activity of HS2ST enzymes in the presence of biochemicals and small-molecule inhibitors was quantified in ‘kinetic mode’ by monitoring the amount of sulfated glycan generated over the assay time, relative to control assay with no additional inhibitor molecule (DMSO control). […] Km and IC50 values were determined by nonlinear regression analysis with GraphPad Prism software.
The PKIS chemical library (Supplementary Figure S6, designated as SB, GSK or GW compound sets) comprises 367 largely ATP-competitive kinase inhibitors, covering 31 chemotypes originally designed to inhibit 24 distinct protein kinase targets. Compounds were stored frozen as a 10 mM stock in DMSO. The library is characterised as highly drug-like (∼70% with molecular mass <500 Da and clogP values <5). […] For inhibition assays, competition assays or individual IC50 value determination, a compound range was prepared by serial dilution in DMSO and added directly into the assay to the appropriate final concentration. All control experiments contained 4% (v/v) DMSO, which had essentially no effect on HS2ST activity. Individual chemicals and glycan derivatives were prepared and evaluated using NMR, HPLC, DSF or microfluidics-based assay protocols, as described above.

[3] = tested on: catalytic subunit of cAMP-dependent protein kinase (PKAc); test: DSF thermal shift of recombinant PKAc; format: binding; conditions: 5 μM PKAc
HS2ST [4] = conditions: read-out: Km for PAPS; HS2ST using desulfated heparin as a substrate; cited from earlier work
[5] = tested on: GlcNAc-6-sulfotransferase NodH; conditions: read-out: Km for PAPS; PAPS-dependent GlcNAc-6-sulfotransferase NodH; cited from earlier work
[6] = tested on: hormone iodotyrosine sulfotransferases; conditions: read-out: Km for PAPS; human hormone iodotyrosine sulfotransferases; cited from earlier work
tyrosyl sulfotransferase = conditions: read-out: Km for PAPS; tissue-purified tyrosyl sulfotransferase; cited from earlier work
[7] = substrate: Nc1ncnc2c1ncn2C1OC(COP(=O)(O)OS(=O)(=O)O)C(OP(=O)(O)O)C1O; test: Microfluidic mobility shift sulfation assay with fluorescent hexasaccharide substrate; format: biochemical, Chicken; conditions: other: 20 nM HS2ST, fluorescein-labelled IdoA hexasaccharide substrate; pH 7.4
Description: as §1, with “sulfation.” for “sulfation. Pressure and voltage settings were adjusted manually to afford optimal separation of the sulfated product and non-sulfated hexasaccharide substrate, with a sample (sip) volume of 20 nl, and total assay times appropriate for the experiment.”, “software. […]” for “software.”

[8] = nucleotides, 20 nM HS2ST, 10 μM PAPS, absence of MgCl2, 15 min, read-out: IC50
[9] = 20 nM HS2ST, 10 μM PAPS (Figure 3D), read-out: IC50
[10] = positive controls of the PKIS enzyme re-screen (Figure 4B, Supplementary Figures 7 and 8), read-out: IC50

Molecule: OC[C@H]1O[C@H](O[C@H]2[C@H](O)[C@@H](O)C(O)O[C@@H]2CO)[C@H](O)[C@@H](O)[C@@H]1O (mixture of isomers) [maltose]
thermal stabilisation of MBP (DSF) (MBP): characteristic stabilisation profile

Molecule: Nc1ncnc2c1ncn2[C@@H]1O[C@H](COP(=O)(O)OP(=O)(O)O)[C@@H](O)[C@H]1O [ADP, adenosine 5′-diphosphate]
thermal stabilisation of HS2ST (DSF) (HS2ST [1]): effective at protecting HS2ST from thermal denaturation

thermal stabilisation of HS2ST (DSF) (HS2ST [1]): not
Molecule: Nc1ncnc2c1ncn2[C@@H]1O[C@H](COP(=O)(O)O)[C@@H](O)[C@H]1O [AMP, adenosine 5′-monophosphate]

IC50 (HS2ST [2]; [8]): 466 µM
Molecule: Nc1ncnc2c1ncn2[C@@H]1O[C@H](COP(=O)(O)OP(=O)(O)OP(=O)(O)O)[C@@H](O)[C@H]1O [ATP, adenosine 5′-triphosphate]

thermal stabilisation of HS2ST (DSF) (HS2ST [1]): clearly induced thermal stabilisation
mode of HS2ST inhibition (HS2ST [2]): PAPS-competitive mode of inhibition
IC50 (HS2ST [2]; [8]): 65 µM
Molecule: CC(C)(COP(=O)(O)OP(=O)(O)OC[C@H]1O[C@@H](n2cnc3c(N)ncnc32)[C@H](O)[C@@H]1OP(=O)(O)O)[C@@H](O)C(=O)NCCC(=O)NCCS [CoA, coenzyme A]

Molecule: Nc1nc2c(ncn2[C@@H]2O[C@H](COP(=O)(O)OP(=O)(O)OP(=O)(O)O)[C@@H](O)[C@H]2O)c(=O)[nH]1 [GTP, guanosine 5′-triphosphate]
thermal stabilisation of HS2ST (DSF) (HS2ST [1]): effective at protecting HS2ST from thermal denaturation

Molecule: O=C1Nc2ccc(I)cc2C1=Cc1cc(Br)c(O)c(Br)c1 [GW305074]
HS2ST inhibition (dose-response) (HS2ST [2]; 20 nM HS2ST, result in words): mid-micromolar HS2ST inhibitor

Molecule: COC(=O)c1ccc2c(c1)C(=Cc1cc(Br)c(O)c(Br)c1)C(=O)N2 [GW405841X]
HS2ST inhibition (dose-response) (HS2ST [2]; 20 nM HS2ST, result in words): did not inhibit HS2ST at any concentration tested

ΔTm (HS2ST [1]; DSF): ~3 °C
HS2ST enzyme activity (HS2ST [2]; high (>1 mM) concentrations of Mg2+ ions, relative to buffer controls, result in words): concentration-dependent increases
Molecule: [Mg+2] [Mg^2+]

thermal stabilisation of HS2ST (DSF) (HS2ST [1]): did not abrogate HS2ST binding
mode of HS2ST inhibition (HS2ST [2]): PAPS-competitive mode of inhibition
IC50 (HS2ST [2]; [8]): ~2 µM
Molecule: Nc1ncnc2c1ncn2C1OC(COP(=O)(O)O)C(OP(=O)(O)O)C1O (stereo not drawn) [PAP, adenosine 3′–5′-diphosphate]

Molecule: Nc1ncnc2c1ncn2C1OC(COP(=O)(O)OS(=O)(=O)O)C(OP(=O)(O)O)C1O (stereo not drawn) [PAPS, adenosine 3′-phosphate 5′-phosphosulfate]
thermal stabilisation of HS2ST (DSF) (HS2ST [1]): positively shifted (stabilised); also recorded: dose-dependent stabilisation
thermal stabilisation of MBP (DSF) (MBP): neither PAPS nor heparin induced stabilisation
thermal stabilisation of PKAc (DSF) ([3]; 0.5 mM PAPS, result in words): did not stabilise
Km (HS2ST [4]): 18.5 µM
Km [5]: ~4.3 µM
Km [6]: 1.5 µM
Km (tyrosyl sulfotransferase): 10 µM

thermal stabilisation of HS2ST (DSF) (HS2ST [1]): clearly induced thermal stabilisation
Molecule: CC(=O)SCCNC(=O)CCNC(=O)[C@H](O)C(C)(C)COP(=O)(O)OP(=O)(O)OC[C@H]1O[C@@H](n2cnc3c(N)ncnc32)[C@H](O)[C@@H]1OP(=O)(O)O [acetyl CoA]

IC50 (HS2ST [2]; [9]): 0.123 ± 0.007 µM
IC50 (HS2ST [2]; [10]): ~0.09 µM
Molecule: O=C(O)C1=CC(=C(c2ccc(O)c(C(=O)O)c2)c2ccc(O)c(C(=O)O)c2)C=CC1=O [aurintricarboxylate, aurintricarboxylic acid]

HS2ST inhibition (HS2ST [2]; result in words): unable to inhibit HS2ST
Molecule: CC(C)(C)c1nc(-c2cccc(NS(=O)(=O)c3c(F)cccc3F)c2F)c(-c2ccnc(N)n2)s1 [dabrafenib]

thermal stabilisation of HS2ST (DSF) (HS2ST [1]): abolished this effect
Molecule: CC(C)(COP(=O)(O)OP(=O)(O)OC[C@H]1O[C@@H](n2cnc3c(N)ncnc32)[C@H](O)[C@@H]1O)[C@@H](O)C(=O)NCCC(=O)NCCS [dephospho-CoA, 3′-dephosphoCoA]

Molecule: CC(=O)c1c(O)c(C)c(O)c(Cc2c(O)c3c(c(C(=O)/C=C/c4ccccc4)c2O)OC(C)(C)C=C3)c1O [rottlerin]
IC50 (HS2ST [2]; IC50, 20 nM HS2ST, 10 μM PAPS (Figure 3D)): 6.4 µM
IC50 (HS2ST [2]; IC50, positive control of the PKIS enzyme re-screen (Figure 4B, Supplementary Figures 7 and 8)): ~8 µM
mode of HS2ST inhibition (HS2ST [2]): competitive mode of HS2ST inhibition

Molecule: CN[C@@H]1C[C@H]2O[C@@](C)([C@@H]1OC)n1c3ccccc3c3c4c(c5c6ccccc6n2c5c31)C(=O)NC4 [staurosporine]
thermal stabilisation of HS2ST (DSF) (HS2ST [1]): neither the pan-kinase inhibitor staurosporine nor several FDA-approved tyrosine kinase inhibitors caused thermal stabilisation

IC50 (HS2ST [2]; [9]): 0.04 ± 0.001 µM
IC50 (HS2ST [2]; [10]): ~0.02 µM
Molecule: Cc1ccc(C(=O)Nc2ccc(S(=O)(=O)O)c3cc(S(=O)(=O)O)cc(S(=O)(=O)O)c23)cc1NC(=O)c1cccc(NC(=O)Nc2cccc(C(=O)Nc3cc(C(=O)Nc4ccc(S(=O)(=O)O)c5cc(S(=O)(=O)O)cc(S(=O)(=O)O)c45)ccc3C)c2)c1 [suramin]

HS2ST inhibition (HS2ST [2]; result in words): unable to inhibit HS2ST
Molecule: CCCS(=O)(=O)Nc1ccc(F)c(C(=O)c2c[nH]c3ncc(-c4ccc(Cl)cc4)cc23)c1F [vemurafenib]

ΔTm ([3]; 0.5 mM ATP and 10 mM MgCl2): > 4 °C
Molecule: Mg-ATP

B1: HS2ST (Gallus gallus) (protein)
chain: DEEDDVVIIYNRVPKTASTSFTNIAYDLCAKNRYHVLHINTTKNNPVMSLQDQVRFVKNVTSWKEMKPGFYHGHVSYLDFAKFGVKKKPIYINVIRDPIERLVSYYYFLRFGDDYRPGLRRRKQGDKKTFDECVAAGGSDCAPEKLWLQIPFFCGHSSECWNVGSRWALEQAKYNLINEYFLVGVTEELEDFIMLLEAALPRFFRGATELYRTGKKSHLRKTTEKKLPTKETIAKLQQSEIWKMENEFYEFALEQFQFVRAHAVREKDGELYILAQNFFYEKIYPKSN
notes: made in house; host or cells: Escherichia coli Rosetta-gami (DE3), modified pMAL-c2x plasmid
Km [7]: 1.03 ± 0.2 µM and 1 µM and 1.0 µM

Source: PMC6094399, “New tools for carbohydrate sulfation analysis: heparan sulfate 2-O-sulfotransferase (HS2ST) is a target for small-molecule protein kinase inhibitors” (Biochemical Journal, 2018)
